Measurements published in PMC6053381, “Novel 2-phenyloxypyrimidine derivative induces apoptosis and autophagy via inhibiting PI3K pathway and activating MAPK/ERK signaling in hepatocellular carcinoma cells” (Scientific Reports, 2018).
pIC50: −log10 of the molar value.

Columns and labels:
PDGFRα = PDGFRα (Homo sapiens, UniProt P16234); assay: PDGFR kinase assay, Caliper microfluidic mobility shift; type: biochemical; conditions: compound at 1 µM; averages of two separate experiments
Method: (§1) In vitro inhibitory activities of all compounds at 1 μM against PDGFRα and PDGFRβ were evaluated using Caliper microfluidic mobility shift technology. […] At the same concentration, only E5 inhibited greater than 50% of PDGFRβ activity (Fig. 2B).
(§2) PDGFR kinase activity was measured using Caliper microfluidic mobility shift technology. Briefly, 2 μL compound solution (25 μM) in 25% DMSO per well were added into the 384 well microtiter plates. Then, 10 μL per well of enzyme solution (100 mM HEPES, 10 mM MgCl2, Brij35 (30%) 100 μL, 1 mM DTT, 20 ng enzyme) was added. After a brief centrifugation at 1,000 rpm, the kinase reactions were started by addition of 38 μL per well of peptide/ATP-solution (40 μM ATP, 6.5 μM peptide 5′-FAM-KKKKEEIYFFF-NH2, Tris-HCl buffer, pH 7.0) incubated at 30 °C for 60 min and stopped by the addition of 20 μL 35 mM EDTA per well. The electrophoretic separation of the phosphorylated and non-phosphorylated peptides was then carried out on LabChip EZ Reader II (Caliper Life Sciences). All other kinase reactions were carried out as previously reported using the Kinase-Glo Plus or ADP-Glo assay. Kinase inhibition rates were calculated per manufacturer’s instructions.

PDGFRβ = PDGFRβ (Homo sapiens, UniProt P09619); assay: as above; type: biochemical; conditions: compound at 1 µM; averages of two separate experiments
Method: as §1, §2

MHCC97-L = assay: CellTiter-Glo luminescent cell viability assay; type: cell-based; conditions: 120 h incubation, read-out: Anti-proliferative activity IC50 MHCC97-L
Source text: (§3) The in vitro antitumor activity of all compounds was screened against six HCC cell lines by CellTiter-Glo luminescent cell viability assay as described earlier. […] After a comprehensive assessment of PDGFR inhibition, cellular activity against HCC cells as well as potential druggability, E5 was chosen to investigate its kinase profiling, antitumor activity and molecular mechanism in the following study. […]
(§4) authenticated by using short tandem repeat (STR) matching analysis. No mycoplasma contamination was detected.
(§5) CellTiter-Glo luminescent cell viability assay
(§6) For experiments hepatocellular carcinoma cells were seeded at 4000 cells per well in 96-well plates. After overnight incubation, solution of compounds in DMSO at various concentrations were added to the cells and further incubated for 120 h. Cell viability was measured with the CellTiter-Glo Luminescent Cell Viability Assay (Promega) according to the manufacturer’s instructions. Luminescence was measured using an EnVision Multilabel Plate Reader (Perkin-Elmer). The cytotoxicity of the compounds was expressed as the percent age of luminescence relative to that of untreated cells . The concentration of compound producing 50% of cell proliferation (IC50) was calculated by nonlinear regression analysis of the response-concentration (log) curve, using the Graph-Pad Prism program package (Graph Pad Software; San Diego, CA). Results are expressed as the means of two […] experiments

SNU368 = assay: CellTiter-Glo luminescent cell viability assay; type: cell-based; conditions: 120 h incubation, read-out: Anti-proliferative activity IC50 SNU368
Source text: as §3, §4, §5, §6

Hep3B = assay: CellTiter-Glo luminescent cell viability assay; type: cell-based; conditions: 120 h incubation, read-out: Anti-proliferative activity IC50 Hep3B
Source text: as §3, §4, §5, §6

BEL7404 = assay: CellTiter-Glo luminescent cell viability assay; type: cell-based; conditions: 120 h incubation, read-out: Anti-proliferative activity IC50 BEL7404
Source text: as §3, §4, §5, §6

QGY-7703 = assay: CellTiter-Glo luminescent cell viability assay; type: cell-based; conditions: 120 h incubation, read-out: Anti-proliferative activity IC50 QGY-7703
Source text: as §3, §4, §5, §6

SMMC-7721 = assay: CellTiter-Glo luminescent cell viability assay; type: cell-based; conditions: 120 h incubation, read-out: Anti-proliferative activity IC50 SMMC-7721
Source text: as §3, §4, §5, §6

PDGFRβ, sequence (P09619 33-1106): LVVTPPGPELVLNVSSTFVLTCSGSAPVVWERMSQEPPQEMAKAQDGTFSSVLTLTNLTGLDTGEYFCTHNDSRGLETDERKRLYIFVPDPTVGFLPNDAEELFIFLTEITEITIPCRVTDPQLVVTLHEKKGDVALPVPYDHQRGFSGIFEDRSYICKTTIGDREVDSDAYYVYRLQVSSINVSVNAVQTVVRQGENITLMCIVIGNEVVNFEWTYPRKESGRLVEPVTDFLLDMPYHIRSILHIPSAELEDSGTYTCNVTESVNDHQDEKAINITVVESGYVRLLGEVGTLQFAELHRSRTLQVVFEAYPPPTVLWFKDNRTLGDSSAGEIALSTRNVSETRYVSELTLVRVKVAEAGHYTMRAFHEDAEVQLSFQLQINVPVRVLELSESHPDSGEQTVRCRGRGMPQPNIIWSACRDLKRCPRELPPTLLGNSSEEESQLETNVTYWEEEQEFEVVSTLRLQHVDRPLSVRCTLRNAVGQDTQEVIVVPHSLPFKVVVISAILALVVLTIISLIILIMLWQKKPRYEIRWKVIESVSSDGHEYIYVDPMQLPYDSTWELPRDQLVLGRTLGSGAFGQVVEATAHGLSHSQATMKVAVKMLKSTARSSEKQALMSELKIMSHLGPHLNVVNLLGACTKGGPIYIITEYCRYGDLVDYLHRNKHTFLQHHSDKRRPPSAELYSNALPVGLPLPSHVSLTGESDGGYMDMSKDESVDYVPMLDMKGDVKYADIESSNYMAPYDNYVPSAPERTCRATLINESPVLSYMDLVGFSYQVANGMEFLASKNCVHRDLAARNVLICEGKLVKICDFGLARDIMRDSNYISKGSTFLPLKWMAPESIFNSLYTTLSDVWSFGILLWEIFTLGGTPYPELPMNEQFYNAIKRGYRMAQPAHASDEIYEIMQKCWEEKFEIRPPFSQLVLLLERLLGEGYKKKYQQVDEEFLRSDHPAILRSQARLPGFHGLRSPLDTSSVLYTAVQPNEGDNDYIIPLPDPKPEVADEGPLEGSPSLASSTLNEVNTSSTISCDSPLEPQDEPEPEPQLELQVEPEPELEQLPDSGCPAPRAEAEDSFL
PDGFRα, sequence (P16234 24-1089): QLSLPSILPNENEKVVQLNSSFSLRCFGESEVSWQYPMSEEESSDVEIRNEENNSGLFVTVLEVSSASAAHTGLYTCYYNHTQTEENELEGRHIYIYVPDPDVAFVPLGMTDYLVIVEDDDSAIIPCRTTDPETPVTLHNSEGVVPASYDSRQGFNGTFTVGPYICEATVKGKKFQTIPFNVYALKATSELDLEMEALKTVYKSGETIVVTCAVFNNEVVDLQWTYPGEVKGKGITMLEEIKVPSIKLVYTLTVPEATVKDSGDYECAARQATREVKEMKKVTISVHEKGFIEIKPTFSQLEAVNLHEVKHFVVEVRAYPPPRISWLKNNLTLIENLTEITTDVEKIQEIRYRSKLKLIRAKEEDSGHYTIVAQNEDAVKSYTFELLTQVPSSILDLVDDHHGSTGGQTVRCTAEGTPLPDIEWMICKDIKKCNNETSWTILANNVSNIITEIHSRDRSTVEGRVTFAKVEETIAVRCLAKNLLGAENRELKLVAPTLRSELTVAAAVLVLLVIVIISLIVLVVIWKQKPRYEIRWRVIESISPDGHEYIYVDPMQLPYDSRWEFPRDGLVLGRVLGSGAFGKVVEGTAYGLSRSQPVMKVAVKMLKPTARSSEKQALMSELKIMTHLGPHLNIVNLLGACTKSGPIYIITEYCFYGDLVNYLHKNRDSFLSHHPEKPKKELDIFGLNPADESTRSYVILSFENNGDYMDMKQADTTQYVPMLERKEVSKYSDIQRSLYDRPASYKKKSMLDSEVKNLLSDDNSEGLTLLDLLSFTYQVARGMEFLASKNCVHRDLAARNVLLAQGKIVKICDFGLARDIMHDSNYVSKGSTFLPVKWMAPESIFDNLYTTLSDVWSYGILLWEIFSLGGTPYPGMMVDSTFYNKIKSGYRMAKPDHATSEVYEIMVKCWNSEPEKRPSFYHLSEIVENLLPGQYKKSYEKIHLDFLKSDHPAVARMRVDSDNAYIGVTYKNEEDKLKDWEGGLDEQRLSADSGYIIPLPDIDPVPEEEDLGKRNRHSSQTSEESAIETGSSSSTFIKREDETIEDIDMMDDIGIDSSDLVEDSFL

`Cc1ccc(NC(=O)c2ccncc2)cc1Oc1nccc(-c2ccccc2)n1` [B12] was tested, and the “Inhibition effect (%) PDGFRα” value (PDGFRα) was 25.66%, the “Inhibition effect (%) PDGFRβ” value (PDGFRβ) was 20.65% and the pIC50 (MHCC97-L) was 4.36. The pIC50 (SNU368) was 4.74, the pIC50 (Hep3B) was 4.75 and the pIC50 (BEL7404) was 4.87. For the same molecule, the pIC50 (QGY-7703) was 4.56 and the pIC50 (SMMC-7721) was 5.06.

For `CC(=O)Nc1ccc(C)c(Oc2nccc(-c3cccc4ccccc34)n2)c1` [C1], the “Inhibition effect (%) PDGFRα” value (PDGFRα) was 33.27%, the “Inhibition effect (%) PDGFRβ” value (PDGFRβ) was 1.32% and the pIC50 (MHCC97-L) was 3.96. For the same molecule, the pIC50 (SNU368) was 4.37, the pIC50 (Hep3B) was 4.49 and the pIC50 (BEL7404) was 4.44. It also gave a pIC50 (QGY-7703) of 4.04 and a pIC50 (SMMC-7721) of 4.68.

With `CCC(=O)Nc1ccc(C)c(Oc2nccc(-c3cccc4ccccc34)n2)c1` [C2] the “Inhibition effect (%) PDGFRα” value (PDGFRα) was 33.78%, the “Inhibition effect (%) PDGFRβ” value (PDGFRβ) was 2.07% and the pIC50 (MHCC97-L) was 3.96. The pIC50 (SNU368) was 4.25, the pIC50 (Hep3B) was 4.44 and the pIC50 (BEL7404) was 4.32. The pIC50 (QGY-7703) was 3.92 and the pIC50 (SMMC-7721) was 4.53.

For `Cc1ccc(NC(=O)c2ccco2)cc1Oc1nccc(-c2cccc3ccccc23)n1` [C3], the “Inhibition effect (%) PDGFRα” value (PDGFRα) was 46.46%, the “Inhibition effect (%) PDGFRβ” value (PDGFRβ) was 11.61% and the pIC50 (MHCC97-L) was 4.04. For the same molecule, the pIC50 (SNU368) was 4.42, the pIC50 (Hep3B) was 4.47 and the pIC50 (BEL7404) was 4.40. The pIC50 (QGY-7703) was 4.15 and the pIC50 (SMMC-7721) was 4.57.

In the case of `Cc1ccc(NC(=O)c2ccoc2)cc1Oc1nccc(-c2cccc3ccccc23)n1` [C4], the “Inhibition effect (%) PDGFRα” value (PDGFRα) was 13.73%, the “Inhibition effect (%) PDGFRβ” value (PDGFRβ) was 2.83% and the pIC50 (MHCC97-L) was 4.02. For the same molecule, the pIC50 (SNU368) was 4.80, the pIC50 (Hep3B) was 4.64 and the pIC50 (BEL7404) was 5.06. For the same molecule, the pIC50 (QGY-7703) was 4.83 and the pIC50 (SMMC-7721) was 4.92.

With `Cc1ccc(NC(=O)c2cccs2)cc1Oc1nccc(-c2cccc3ccccc23)n1` [C5] the “Inhibition effect (%) PDGFRα” value (PDGFRα) was 16.27%, the “Inhibition effect (%) PDGFRβ” value (PDGFRβ) was 5.08% and the pIC50 (MHCC97-L) was 4.55. It also gave a pIC50 (SNU368) of 4.55, a pIC50 (Hep3B) of 4.77 and a pIC50 (BEL7404) of 4.68. It also gave a pIC50 (QGY-7703) of 4.45 and a pIC50 (SMMC-7721) of 4.77.

In the case of `Cc1ccc(NC(=O)c2ccc(Cl)cc2)cc1Oc1nccc(-c2cccc3ccccc23)n1` [C6], the “Inhibition effect (%) PDGFRα” value (PDGFRα) was 24.14%, the “Inhibition effect (%) PDGFRβ” value (PDGFRβ) was -0.94% and the pIC50 (MHCC97-L) was under 3.70. It also gave a pIC50 (SNU368) of 4.76, a pIC50 (Hep3B) of 4.71 and a pIC50 (BEL7404) of 5.17. For the same molecule, the pIC50 (QGY-7703) was 4.72 and the pIC50 (SMMC-7721) was 4.84.

In the case of `Cc1ccc(NC(=O)c2ccccc2)cc1Oc1nccc(-c2ccco2)n1` [D1], the “Inhibition effect (%) PDGFRα” value (PDGFRα) was 13.74%, the “Inhibition effect (%) PDGFRβ” value (PDGFRβ) was 28.93% and the pIC50 (MHCC97-L) was 5.80. For the same molecule, the pIC50 (SNU368) was 4.43, the pIC50 (Hep3B) was 4.94 and the pIC50 (BEL7404) was 4.31. It also gave a pIC50 (QGY-7703) of 5.60 and a pIC50 (SMMC-7721) of 5.82.

For `Cc1ccc(NC(=O)Cc2ccccc2)cc1Oc1nccc(-c2ccco2)n1` [D2], the “Inhibition effect (%) PDGFRα” value (PDGFRα) was 36.82%, the “Inhibition effect (%) PDGFRβ” value (PDGFRβ) was 46.75% and the pIC50 (MHCC97-L) was 4.58. The pIC50 (SNU368) was 4.36, the pIC50 (Hep3B) was 4.55 and the pIC50 (BEL7404) was 4.48. It also gave a pIC50 (QGY-7703) of 4.37 and a pIC50 (SMMC-7721) of 4.67.

In the case of `COc1ccc(C(=O)Nc2ccc(C)c(Oc3nccc(-c4ccco4)n3)c2)cc1` [D3], the “Inhibition effect (%) PDGFRα” value (PDGFRα) was 22.61%, the “Inhibition effect (%) PDGFRβ” value (PDGFRβ) was 37.72% and the pIC50 (MHCC97-L) was 5.07. The pIC50 (SNU368) was 4.65, the pIC50 (Hep3B) was 5.01 and the pIC50 (BEL7404) was 4.75. For the same molecule, the pIC50 (QGY-7703) was 4.80 and the pIC50 (SMMC-7721) was 5.10.

With `Cc1cccc(C(=O)Nc2ccc(C)c(Oc3nccc(-c4ccco4)n3)c2)c1` [D4] the “Inhibition effect (%) PDGFRα” value (PDGFRα) was 45.70%, the “Inhibition effect (%) PDGFRβ” value (PDGFRβ) was 46.00% and the pIC50 (MHCC97-L) was 5.47. It also gave a pIC50 (SNU368) of 4.63, a pIC50 (Hep3B) of 5.22 and a pIC50 (BEL7404) of 5.35. It also gave a pIC50 (QGY-7703) of 5.12 and a pIC50 (SMMC-7721) of 5.43.
